Assay results reported in patent US12448394B2, “Heterocyclic pyrazole derivatives as type III receptor tyrosine kinase inhibitors” (DEVELOPMENT CENTER FOR BIOTECHNOLOGY, priority 2019, dated 2025).
pIC50: −log10 of the molar value.

Experiments:
[1] = system: Molm-14 human acute myeloid leukemia cell with FLT3-ITD mutation; experiment: Molm-14 cell proliferation assay (CellTiter 96); format: cell-based; conditions: Homo sapiens; Molm-14 cells, 72 hours treatment, CellTiter96; read-out: anti-proliferation activity Molm-14 (FLT3-ITD), IC50 ranking
Summary of the method: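 Molm-14 (FLT3-ITD AML) cells in RPMI 1640 with 10% heat-inactivated FBS were seeded at 25000 cells/well, incubated overnight at 37° C, 5% CO2, then treated with increasing compound concentrations for 72 hours. Viability was read as absorbance at 490 nm after 2˜4 hours with CellTiter96 AQueous One reagent.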

[2] = system: A375 melanoma cell with BRAF V600E mutation; experiment: A375 cell proliferation assay (counter screen); format: cell-based, human; conditions: Homo sapiens, A-375, A375 cells, 72 hours treatment, CellTiter96, read-out: anti-proliferation activity A375 BRAF V600E, IC50 ranking
Summary of the method: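 A375 cells (BRAF V600E) seeded at 2000 cells/well in DMEM with 10% FBS, settled overnight at 37° C, 5% CO2, then exposed to increasing compound concentrations for 72 hours. Viability read by MTS-type CellTiter96 AQueous reagent, absorbance at 490 nm after 2–4 hours.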

[3] = system: MV4-11 human acute myeloid leukemia cell with FLT3-ITD mutation; experiment: MV4-11 cell proliferation assay (CellTiter 96); format: cell-based; conditions: Homo sapiens, MV4-11, 72 h, MV4-11 cells, 72 hours treatment, CellTiter96; read-out: anti-proliferation activity MV4-11 (FLT3-ITD), IC50 ranking
Summary of the method: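 Cells seeded at 6500/well in IMDM with 10% heat-inactivated FBS, left overnight at 37 °C, 5% CO2, then exposed to increasing compound concentrations for 72 h. Viability read as absorbance at 490 nm after 2–4 h with CellTiter96 AQueous One reagent.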

[4] = system: THP-1 human acute monocytic leukemia cell with NRAS G12D mutation; experiment: THP-1 cell proliferation assay (counter screen); format: cell-based; conditions: Homo sapiens, THP-1 cells, 72 hours treatment, CellTiter96, read-out: anti-proliferation activity THP-1 NRAS N12D, IC50 ranking
Summary of the method: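 THP-1 cells (NRAS G12D, growth independent of class III RTK signaling) seeded at 5000 cells/well overnight, then exposed to increasing compound concentrations for 72 h at 37° C, 5% CO2. Viability read by CellTiter96 AQueous One reagent (2–4 h) as absorbance at 490 nm.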

[5] = target: T1, MET kinase (Homo sapiens, UniProt P08581); experiment: MET kinase assay (AlphaScreen, counter screen); format: biochemical; conditions: read-out: Ranking of IC50 values, MET
T1 construct: purchased SignalChem
Summary of the method: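 Recombinant MET kinase (1 ng) phosphorylated biotinylated poly(Glu4:Tyr1) with […] ATP (so in the source) in MOPS pH 7.0 buffer with 10 mM MgCl2, 45 min at 30 °C, stopped with EDTA. Product read by AlphaScreen; IC50 from serial dilutions run in duplicate.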

[6] = system: HCC827 NSCLC cell with EGFR exon 19 deletion mutation; experiment: HCC827 cell proliferation assay (counter screen); format: cell-based, human; conditions: Homo sapiens, HCC827 cells, 72 hours treatment, CellTiter96, read-out: anti-proliferation activity HCC827 EGFR Exon19 del, IC50 ranking
Summary of the method: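 HCC827 cells (EGFR exon 19 deletion) were seeded at 8000 cells/well in RPMI1640 with 10% FBS, then exposed to increasing compound concentrations for 72 h at 37 °C. Viability was read by CellTiter96 AQueous One (MTS), absorbance 490 nm after 2–4 h.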

T1 sequence (P08581 25-1390): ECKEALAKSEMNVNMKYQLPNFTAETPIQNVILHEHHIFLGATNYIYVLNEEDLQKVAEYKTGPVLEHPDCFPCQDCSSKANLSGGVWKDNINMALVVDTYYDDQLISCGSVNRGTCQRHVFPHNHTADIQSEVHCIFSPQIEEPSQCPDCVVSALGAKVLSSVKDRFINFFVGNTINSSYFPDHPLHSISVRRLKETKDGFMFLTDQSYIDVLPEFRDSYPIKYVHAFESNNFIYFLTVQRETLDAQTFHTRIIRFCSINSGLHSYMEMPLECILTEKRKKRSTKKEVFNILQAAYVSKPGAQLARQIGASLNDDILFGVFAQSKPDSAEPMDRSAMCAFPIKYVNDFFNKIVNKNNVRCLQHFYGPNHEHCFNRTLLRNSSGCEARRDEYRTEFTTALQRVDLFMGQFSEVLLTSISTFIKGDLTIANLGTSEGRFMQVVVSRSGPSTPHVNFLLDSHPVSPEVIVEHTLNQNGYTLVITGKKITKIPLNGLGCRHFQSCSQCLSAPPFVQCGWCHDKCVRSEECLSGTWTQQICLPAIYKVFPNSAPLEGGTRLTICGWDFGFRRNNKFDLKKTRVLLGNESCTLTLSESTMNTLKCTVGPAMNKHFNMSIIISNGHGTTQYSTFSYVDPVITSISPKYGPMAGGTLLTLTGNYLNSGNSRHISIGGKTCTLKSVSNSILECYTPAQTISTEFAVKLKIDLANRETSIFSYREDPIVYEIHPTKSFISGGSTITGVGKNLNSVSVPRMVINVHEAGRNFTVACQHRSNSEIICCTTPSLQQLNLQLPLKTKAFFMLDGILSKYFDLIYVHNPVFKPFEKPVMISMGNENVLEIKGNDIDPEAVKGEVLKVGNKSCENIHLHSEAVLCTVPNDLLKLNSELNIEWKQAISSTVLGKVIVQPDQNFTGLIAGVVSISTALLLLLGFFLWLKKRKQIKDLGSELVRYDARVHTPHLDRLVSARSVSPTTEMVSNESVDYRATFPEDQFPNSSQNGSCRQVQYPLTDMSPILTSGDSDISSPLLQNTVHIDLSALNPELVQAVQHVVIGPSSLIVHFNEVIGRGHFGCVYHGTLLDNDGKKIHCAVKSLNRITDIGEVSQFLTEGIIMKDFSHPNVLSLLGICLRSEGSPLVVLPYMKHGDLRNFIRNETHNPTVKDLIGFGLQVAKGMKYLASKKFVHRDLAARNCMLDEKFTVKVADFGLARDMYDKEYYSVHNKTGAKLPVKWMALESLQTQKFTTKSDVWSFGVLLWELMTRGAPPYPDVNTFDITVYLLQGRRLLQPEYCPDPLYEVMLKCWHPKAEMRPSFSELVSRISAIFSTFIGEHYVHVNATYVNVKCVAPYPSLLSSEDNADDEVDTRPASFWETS

pIC50 [1]	pIC50 [3]	pIC50 [5]	Compound	pIC50 [2]	pIC50 [4]	pIC50 [6]
> 7.52	> 7.52	6.00 to 6.52	CN1CCN(Cc2ccc(-c3cc4c(s3)Cc3c(-c5ccc6cn[nH]c6c5)n[nH]c3-4)cc2)CC1 [Compound 83, 3-(1H-indazol-6-yl)-6-(4-((4-methylpiperazin-1-yl)methyl)phenyl)-1,4-dihydrothieno[2′,3′:4,5] cyclopenta[1,2-c]pyrazole]	< 5.00	< 5.00	< 5.00
6.52 to 7.00	7.00 to 7.52	< 6.00	Cn1ncc2ccc(-c3n[nH]c4c3Cc3sc(-c5ccnc(Cl)c5)cc3-4)cc21 [Compound 86, 6-(2-chloropyridin-4-yl)-3-(1-methyl-1H-indazol-6-yl)-1,4-dihydrothieno [2′,3′:4,5]cyclopenta [1,2-c]pyrazole]	< 5.00	< 5.00	< 5.00
> 7.52	> 7.52	< 6.00	CN1CCN(Cc2ccc(-c3cc4c(s3)Cc3c(-c5ccc6cnn(C)c6c5)n[nH]c3-4)cc2)CC1 [Compound 84, 3-(1-methyl-1H-indazol-6-yl)-6-(4-((4-methylpiperazin-1-yl)methyl)phenyl)-1,4-dihydrothieno [2′,3′:4,5]cyclopenta [1,2-c]pyrazole]	< 5.00	< 5.00	< 5.00
> 7.52	> 7.52	< 6.00	Cn1ncc2ccc(-c3n[nH]c4c3Cc3sc(-c5ccc(N)nc5)cc3-4)cc21 [Compound 92, 5-(3-(1-methyl-1H-indazol-6-yl)-1,4-dihydro-thieno[2′,3′:4,5]cyclopenta [1,2-c]pyrazol-6-yl) pyridin-2-amine]	5.00 to 6.00	5.00 to 6.00	< 5.00
6.00 to 6.52	6.52 to 7.00	< 6.00	Cn1ncc2ccc(-c3n[nH]c4c3Cc3sc(-c5ccc(N6CCOCC6)nc5)cc3-4)cc21 [Compound 82, 4-(5-(3-(1-methyl-1H-indazol-6-yl)-1,4-dihydro-thieno[2′,3′:4,5]cyclopenta [1,2-c]pyrazol-6-yl)pyridin-2-yl)morpholine]	5.00 to 6.00	< 5.00	< 5.00
